Results reported in US20230085307A1, “PYRIDAZINONE COMPOUND AND HERBICIDE” (NISSAN CHEMICAL CORPORATION, priority 2019, published 2023).

What was measured:
wild oat [1] = test: Test Example 5: herbicidal effect by foliage application, plastic box (Table 20, symbol I); type: in vivo, wild oat (Avena fatua); conditions: foliage application, 320 g/ha
Outline: (§1)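 Plants were sown into sterilized diluvial soil under about 1.5 cm cover and kept in a greenhouse at 25° C. to 30° C. Fourteen days on, foliage received an even spray of the diluted emulsion. Herbicidal or crop effect was judged three weeks afterwards.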

barnyard grass [2] = test: Test Example 3: herbicidal effect by foliage application, Wagner pot (Table 18, symbol H); type: in vivo, barnyard grass (Echinochloa crus-galli)
Outline: (§2)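 Plants were sown in alluvial soil held under 0.1–0.5 cm standing water and grown 14 days in a greenhouse at 25–30 °C. An emulsifiable formulation, water-diluted to the set dose, was then sprayed onto the foliage, and effects were scored three weeks later using previously defined criteria.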

barnyard grass [3] = test: Test Example 5: herbicidal effect by foliage application, plastic box (Table 20, symbol H); type: in vivo, barnyard grass (Echinochloa crus-galli); conditions: foliage application, 320 g/ha
Outline: as §1

rice flat sedge = test: Test Example 3: herbicidal effect by foliage application, Wagner pot (Table 18, symbol E); type: in vivo, rice flat sedge (Cyperus iria)
Outline: as §2

green foxtail [4] = test: Test Example 5: herbicidal effect by foliage application, plastic box (Table 20, symbol G); type: in vivo, green foxtail (Setaria viridis); conditions: foliage application, 320 g/ha
Outline: as §1

late watergrass = test: Test Example 1: herbicidal activity, application before weed generation under submerged conditions (Table 16, symbol A); type: in vivo, late watergrass (Echinochloa oryzicola)
Outline: (§3)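 Alluvial soil was flooded to 4 cm depth, weed seeds were sown mixed and 2.5-leaf rice seedlings were transplanted. On sowing day, the compound's emulsion, diluted in water to a set dose, was applied to the water surface. Plants grew at 25–30 °C and were scored 0–5 after three weeks.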

blackgrass [5] = test: Test Example 4: herbicidal effect by soil treatment (Table 19, symbol J); type: in vivo, blackgrass (Alopecurus myosuroides); conditions: amount of applied herbicide 320 g/ha
Outline: (§4)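 Pre-emergence style soil spray: seeds under ~1.5 cm sterilized diluvial soil received a uniform coat of emulsion diluted to the predetermined herbicide amount. Greenhouse 25–30° C; readout at week three on previously defined criteria.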

blackgrass [6] = test: Test Example 5: herbicidal effect by foliage application, plastic box (Table 20, symbol J); type: in vivo, blackgrass (Alopecurus myosuroides); conditions: foliage application, 320 g/ha
Outline: as §1

wild oat [7] = test: Test Example 4: herbicidal effect by soil treatment (Table 19, symbol I); type: in vivo, wild oat (Avena fatua); conditions: amount of applied herbicide 320 g/ha
Outline: as §4

persian speedwell [8] = test: Test Example 4: herbicidal effect by soil treatment (Table 19, symbol R); type: in vivo, Persian speedwell (Veronica persica); conditions: amount of applied herbicide 320 g/ha
Outline: as §4

Italian ryegrass [9] = test: Test Example 4: herbicidal effect by soil treatment (Table 19, symbol K); type: in vivo, Italian ryegrass (Lolium multiflorum); conditions: amount of applied herbicide 320 g/ha
Outline: as §4

southern crabgrass [10] = test: Test Example 5: herbicidal effect by foliage application, plastic box (Table 20, symbol F); type: in vivo, southern crabgrass (Digitaria ciliaris); conditions: foliage application, 320 g/ha
Outline: as §1

velvetleaf [11] = test: Test Example 4: herbicidal effect by soil treatment (Table 19, symbol M); type: in vivo, velvetleaf (Abutilon theophrasti); conditions: amount of applied herbicide 320 g/ha
Outline: as §4

velvetleaf [12] = test: Test Example 5: herbicidal effect by foliage application, plastic box (Table 20, symbol M); type: in vivo, velvetleaf (Abutilon theophrasti); conditions: foliage application, 320 g/ha
Outline: as §1

chickweed [13] = test: Test Example 5: herbicidal effect by foliage application, plastic box (Table 20, symbol P); type: in vivo, common chickweed (Stellaria media); conditions: foliage application, 320 g/ha
Outline: as §1

lambsquarters [14] = test: Test Example 5: herbicidal effect by foliage application, plastic box (Table 20, symbol O); type: in vivo, lambsquarters (Chenopodium album); conditions: foliage application, 320 g/ha
Outline: as §1

windgrass [15] = test: Test Example 4: herbicidal effect by soil treatment (Table 19, symbol L); type: in vivo, windgrass (Apera spica-venti); conditions: amount of applied herbicide 320 g/ha
Outline: as §4

chickweed [16] = test: Test Example 4: herbicidal effect by soil treatment (Table 19, symbol P); type: in vivo, common chickweed (Stellaria media); conditions: amount of applied herbicide 320 g/ha
Outline: as §4

Italian ryegrass [17] = test: Test Example 5: herbicidal effect by foliage application, plastic box (Table 20, symbol K); type: in vivo, Italian ryegrass (Lolium multiflorum); conditions: foliage application, 320 g/ha
Outline: as §1

redroot pigweed [18] = test: Test Example 4: herbicidal effect by soil treatment (Table 19, symbol N); type: in vivo, redroot pigweed (Amaranthus retroflexus); conditions: amount of applied herbicide 320 g/ha
Outline: as §4

false cleavers [19] = test: Test Example 4: herbicidal effect by soil treatment (Table 19, symbol Q); type: in vivo, false cleavers (Galium spurium); conditions: amount of applied herbicide 320 g/ha
Outline: as §4

barnyard grass [20] = test: Test Example 4: herbicidal effect by soil treatment (Table 19, symbol H); type: in vivo, barnyard grass (Echinochloa crus-galli); conditions: amount of applied herbicide 320 g/ha
Outline: as §4

persian speedwell [21] = test: Test Example 5: herbicidal effect by foliage application, plastic box (Table 20, symbol R); type: in vivo, Persian speedwell (Veronica persica); conditions: foliage application, 320 g/ha
Outline: as §1

redroot pigweed [22] = test: Test Example 5: herbicidal effect by foliage application, plastic box (Table 20, symbol N); type: in vivo, redroot pigweed (Amaranthus retroflexus); conditions: foliage application, 320 g/ha, three weeks after application
Outline: as §1

windgrass [23] = test: Test Example 5: herbicidal effect by foliage application, plastic box (Table 20, symbol L); type: in vivo, windgrass (Apera spica-venti); conditions: foliage application, 320 g/ha, three weeks after application
Outline: as §1

oval-leafed pondweed = test: Test Example 1: herbicidal activity, application before weed generation under submerged conditions (Table 16, symbol C); type: in vivo, oval-leafed pondweed (Monochoria vaginalis)
Outline: as §3

Chinese sprangletop = test: Test Example 3: herbicidal effect by foliage application, Wagner pot (Table 18, symbol D); type: in vivo, chinese sprangletop (Leptochloa chinensis)
Outline: as §2

green foxtail [24] = test: Test Example 4: herbicidal effect by soil treatment (Table 19, symbol G); type: in vivo, green foxtail (Setaria viridis); conditions: amount of applied herbicide 320 g/ha
Outline: as §4

southern crabgrass [25] = test: Test Example 4: herbicidal effect by soil treatment (Table 19, symbol F); type: in vivo, southern crabgrass (Digitaria ciliaris); conditions: amount of applied herbicide 320 g/ha
Outline: as §4

false cleavers [26] = test: Test Example 5: herbicidal effect by foliage application, plastic box (Table 20, symbol Q); type: in vivo, false cleavers (Galium spurium); conditions: foliage application, 320 g/ha
Outline: as §1

Japanese bulrush = test: Test Example 1: herbicidal activity, application before weed generation under submerged conditions (Table 16, symbol B); type: in vivo, Japanese bulrush (Schoenoplectus juncoides)
Outline: as §3

lambsquarters [27] = test: Test Example 4: herbicidal effect by soil treatment (Table 19, symbol O); type: in vivo, lambsquarters (Chenopodium album); conditions: amount of applied herbicide 320 g/ha
Outline: as §4

[28] = amount of applied herbicide 320 g/ha
[29] = evaluated three weeks after application

CCCC(=O)Oc1c(C)nn(C)c(=O)c1-c1c(-c2ccc3c(c2)OCCO3)sc2cc(C)ccc12 [3-060]
I: wild oat, herbicidal effect grade (wild oat [1]; three weeks after application): 0 (Herbicidal rate of 5% or less (almost no effect))
herbicidal effect on barnyard grass (H) (barnyard grass [2]; 320 g/ha): 3 (Herbicidal rate of 40% or more and less than 70%)
H: barnyard grass, herbicidal effect grade (barnyard grass [3]; three weeks after application): 0 (Herbicidal rate of 5% or less (almost no effect))
herbicidal effect on rice flat sedge (E) (rice flat sedge; 320 g/ha): 3 (Herbicidal rate of 40% or more and less than 70%)
G: green foxtail, herbicidal effect grade (green foxtail [4]; three weeks after application): 0 (Herbicidal rate of 5% or less (almost no effect))
Herbicidal effect, A: late watergrass (late watergrass; [28]): 1 (Herbicidal rate of 5% or more and less than 20%)
J: blackgrass, herbicidal effect grade (blackgrass [5]): 0 (Herbicidal rate of 5% or less (almost no effect))
J: blackgrass, herbicidal effect grade (blackgrass [6]; three weeks after application): 3 (Herbicidal rate of 40% or more and less than 70%)
I: wild oat, herbicidal effect grade (wild oat [7]): 0 (Herbicidal rate of 5% or less (almost no effect))
R: persian speedwell, herbicidal effect grade (persian speedwell [8]): 3 (Herbicidal rate of 40% or more and less than 70%)
K: Italian ryegrass, herbicidal effect grade (Italian ryegrass [9]): 0 (Herbicidal rate of 5% or less (almost no effect))
F: southern crabgrass, herbicidal effect grade (southern crabgrass [10]; three weeks after application): 0 (Herbicidal rate of 5% or less (almost no effect))
M: velvetleaf, herbicidal effect grade (velvetleaf [11]): 0 (Herbicidal rate of 5% or less (almost no effect))
M: velvetleaf, herbicidal effect grade (velvetleaf [12]; three weeks after application): 0 (Herbicidal rate of 5% or less (almost no effect))
P: chickweed, herbicidal effect grade (chickweed [13]; three weeks after application): 5 (Herbicidal rate of 90% or more (almost completely withered))
O: lambsquarters, herbicidal effect grade (lambsquarters [14]; three weeks after application): 0 (Herbicidal rate of 5% or less (almost no effect))
L: windgrass, herbicidal effect grade (windgrass [15]): 0 (Herbicidal rate of 5% or less (almost no effect))
P: chickweed, herbicidal effect grade (chickweed [16]): 0 (Herbicidal rate of 5% or less (almost no effect))
K: Italian ryegrass, herbicidal effect grade (Italian ryegrass [17]; three weeks after application): 0 (Herbicidal rate of 5% or less (almost no effect))
N: redroot pigweed, herbicidal effect grade (redroot pigweed [18]): 0 (Herbicidal rate of 5% or less (almost no effect))
Q: false cleavers, herbicidal effect grade (false cleavers [19]): 0 (Herbicidal rate of 5% or less (almost no effect))
H: barnyard grass, herbicidal effect grade (barnyard grass [20]): 0 (Herbicidal rate of 5% or less (almost no effect))
R: persian speedwell, herbicidal effect grade (persian speedwell [21]; three weeks after application): 5 (Herbicidal rate of 90% or more (almost completely withered))
N: redroot pigweed, herbicidal effect grade (redroot pigweed [22]): 0 (Herbicidal rate of 5% or less (almost no effect))
L: windgrass, herbicidal effect grade (windgrass [23]): 3 (Herbicidal rate of 40% or more and less than 70%)
Herbicidal effect, C: oval-leafed pondweed (oval-leafed pondweed; [28]): 0 (Herbicidal rate of 5% or less (almost no effect))
herbicidal effect on Chinese sprangletop (D) (Chinese sprangletop; 320 g/ha): 4 (Herbicidal rate of 70% or more and less than 90%)
G: green foxtail, herbicidal effect grade (green foxtail [24]): 0 (Herbicidal rate of 5% or less (almost no effect))
F: southern crabgrass, herbicidal effect grade (southern crabgrass [25]): 0 (Herbicidal rate of 5% or less (almost no effect))
Q: false cleavers, herbicidal effect grade (false cleavers [26]; three weeks after application): 0 (Herbicidal rate of 5% or less (almost no effect))
Herbicidal effect, B: Japanese bulrush (Japanese bulrush; [28]): 2 (Herbicidal rate of 20% or more and less than 40%)

CCCC(=O)Oc1c(C)nn(C)c(=O)c1-c1c(-c2ccc(F)cc2OC)sc2ccc(C)cc12 [2-149]
herbicidal effect on I: wild oat (criteria 0-5) (wild oat [1]; [29]): 1 (Herbicidal rate of 5% or more and less than 20%)
herbicidal effect on H: barnyard grass (barnyard grass [2]; [28]): 5 (Herbicidal rate of 90% or more (almost completely withered))
herbicidal effect on H: barnyard grass (criteria 0-5) (barnyard grass [3]; [29]): 3 (Herbicidal rate of 40% or more and less than 70%)
herbicidal effect on E: rice flat sedge (rice flat sedge; [28]): 3 (Herbicidal rate of 40% or more and less than 70%)
herbicidal effect on G: green foxtail (criteria 0-5) (green foxtail [4]; [29]): 5 (Herbicidal rate of 90% or more (almost completely withered))
Herbicidal effect on A: late watergrass (grade 0-5) (late watergrass; 320 g/ha applied herbicide): 3 (Herbicidal rate of 40% or more and less than 70%)
J: blackgrass, herbicidal effect rating (blackgrass [5]): 0 (Herbicidal rate of 5% or less (almost no effect))
herbicidal effect on J: blackgrass (criteria 0-5) (blackgrass [6]; [29]): 2 (Herbicidal rate of 20% or more and less than 40%)
I: wild oat, herbicidal effect rating (wild oat [7]): 0 (Herbicidal rate of 5% or less (almost no effect))
R: persian speedwell, herbicidal effect rating (persian speedwell [8]): 3 (Herbicidal rate of 40% or more and less than 70%)
K: Italian ryegrass, herbicidal effect rating (Italian ryegrass [9]): 0 (Herbicidal rate of 5% or less (almost no effect))
herbicidal effect on F: southern crabgrass (criteria 0-5) (southern crabgrass [10]; [29]): 3 (Herbicidal rate of 40% or more and less than 70%)
M: velvetleaf, herbicidal effect rating (velvetleaf [11]): 0 (Herbicidal rate of 5% or less (almost no effect))
herbicidal effect on M: velvetleaf (criteria 0-5) (velvetleaf [12]; [29]): 1 (Herbicidal rate of 5% or more and less than 20%)
herbicidal effect on P: chickweed (criteria 0-5) (chickweed [13]; [29]): 5 (Herbicidal rate of 90% or more (almost completely withered))
herbicidal effect on O: lambsquarters (criteria 0-5) (lambsquarters [14]; [29]): 4 (Herbicidal rate of 70% or more and less than 90%)
L: windgrass, herbicidal effect rating (windgrass [15]): 0 (Herbicidal rate of 5% or less (almost no effect))
P: chickweed, herbicidal effect rating (chickweed [16]): 3 (Herbicidal rate of 40% or more and less than 70%)
herbicidal effect on K: Italian ryegrass (criteria 0-5) (Italian ryegrass [17]; [29]): 0 (Herbicidal rate of 5% or less (almost no effect))
N: redroot pigweed, herbicidal effect rating (redroot pigweed [18]): 5 (Herbicidal rate of 90% or more (almost completely withered))
Q: false cleavers, herbicidal effect rating (false cleavers [19]): 3 (Herbicidal rate of 40% or more and less than 70%)
H: barnyard grass, herbicidal effect rating (barnyard grass [20]): 0 (Herbicidal rate of 5% or less (almost no effect))
herbicidal effect on R: persian speedwell (criteria 0-5) (persian speedwell [21]; [29]): 3 (Herbicidal rate of 40% or more and less than 70%)
O: lambsquarters, herbicidal effect rating (lambsquarters [27]): 4 (Herbicidal rate of 70% or more and less than 90%)
Herbicidal effect on C: oval-leafed pondweed (grade 0-5) (oval-leafed pondweed; 320 g/ha applied herbicide): 0 (Herbicidal rate of 5% or less (almost no effect))
herbicidal effect on D: Chinese sprangletop (Chinese sprangletop; [28]): 0 (Herbicidal rate of 5% or less (almost no effect))
G: green foxtail, herbicidal effect rating (green foxtail [24]): 4 (Herbicidal rate of 70% or more and less than 90%)
F: southern crabgrass, herbicidal effect rating (southern crabgrass [25]): 0 (Herbicidal rate of 5% or less (almost no effect))
herbicidal effect on Q: false cleavers (criteria 0-5) (false cleavers [26]; [29]): 3 (Herbicidal rate of 40% or more and less than 70%)
Herbicidal effect on B: Japanese bulrush (grade 0-5) (Japanese bulrush; 320 g/ha applied herbicide): 1 (Herbicidal rate of 5% or more and less than 20%)
